For the test, the system named is Male Sprague-Dawley rats. The experiment in a line: Spinal anesthetic effect (spinal blockade) after intrathecal injection in rats. It counts as in vivo. The arrangement: AUC of time-% PE curve, spinal blockade of motor function / AUC of time-% PE curve, spinal blockade of proprioception / AUC of time-% PE curve, spinal blockade of nociceptive reaction: unit not given beside the values. As to the method:
Male Sprague-Dawley rats (weighing about 300 to 350 g); for each dose of each drug, n=6.
In brief, for preparation, the hairs on the back of each rat were shaved, and the shaved back was sterilized with iodine.
After three minutes, 50 μL of each of the tested drugs was injected via a 27-gauge needle attached to a 100-μL syringe (Hamilton, Reno, Nev.) into the intrathecal space between the fourth and fifth lumbar vertebrae. The development of spinal blockade was observed from the paralysis of the hind limbs of the rats.
The magnitude of nerve block (including blocking of motor function, proprioception, and nociceptive reaction) was expressed as the percentage of possible effect (hereinafter referred to as % PE), and the maximal value of % PE was expressed as the percentage of maximal possible effect (hereinafter referred to as % MPE).
Motor function was evaluated by measuring the extensor postural thrust of the right hind limbs of the rats using a digital platform balance (Mettler Toledo, Switzerland, model PB1502-S). To test the extensor postural thrust, the rat was held upright with the hind limb extended, so that the body weight of the rat was supported by the distal metatarsus and toes. The extensor postural thrust could be measured as the force of the right hind limb of the rat thrusting the platform balance.
A reduction in the force, resulting in extensor muscle tone, was considered as a motor deficit. A force less than 20 g (i.e., a weight of the “flaccid limb”) was considered absence of an extensor postural thrust or 100% motor block or 100% MPE.
Proprioception was evaluated based on resting posture and postural reactions (including tactile placing and hopping). First, the front half of the rat body and one of the hind limbs were lifted off the ground at the same time so that the rat was standing on one hind limb. Then, the rat was moved laterally, which normally evoked a prompt hopping response of the weight-bearing hind limb of the rat in the direction of movement so as to avoid falling. A predominantly proprioceptive block caused a delayed hopping followed by greater lateral hops. […] Functional deficits were classified into four grades: 3 (normal or 0% MPE), 2 (slightly impaired), 1 (severely impaired), and 0 (completely impaired or 100% MPE).
Nociceptive reaction was evaluated by the withdrawal reflex or vocalization elicited by the pinch of a skin fold over the back at 1 cm near the proximal part of the tail, the lateral metatarsus of the bilateral hind limbs, and the dorsal part of the mid-tail. At each testing time, only one pinch was given to each of the abovementioned four testing sites, and the time interval between stimulations at different sites was around 2 seconds. Nociceptive reactions were classified into five grades: 4 (normal or 0% MPE), 3 (25% MPE), 2 (50% MPE), 1 (75% MPE), and 0 (absent or 100% MPE).
The potency of each drug on spinal blockades was compared using ED50.
Duration was defined as the interval from injection of the tested drugs to complete recovery. The ED25, ED50 and ED75 obtained according to the SAS NLIN analysis in the preceding section “C. Potency evaluation” were used in this experiment.
Regarding the method of evaluating the effect of co-administration, dextromethorphan hydrobromide monohydrate was used as an example.
After the tests, the time of measurement of each drug and its corresponding % PE were plotted to obtain the time-% PE curves of each drug. The area under the curve (AUC) of time-% PE was calculated using the trapezoidal rule, and was used to evaluate the effect of the co-administration of the drugs.
Statistical software, SPSS for Windows® (version 10.0.7) was used. Data were represented as mean±SEM.

[1] abbreviates: intrathecal, rats, 2 ED50 when administered independently, ED50 of each drug when co-administered, mean ± SEM.
Where [2] appears, read: spinal blockade, mean of motor function, proprioception and nociceptive reaction, intrathecal, rats.

Where a name gives a salt, the structure may show the parent alone.

`COc1ccc2c(c1)[C@]13CCCC[C@@H]1[C@H](C2)N(C)CC3` [Dextromethorphan hydrobromide monohydrate]: for the setting “intrathecal dose of ED75, rats”, the “% MPE of spinal blockades of motor function, proprioception and nociceptive reaction (range over the three functions)” value is 66-80 % MPE; the “duration of spinal blockades of motor function, proprioception and nociceptive reaction (range over the three functions)” value was 22 to 40 min. In addition, for the setting “intrathecal, rats, ED50 of each drug”, the “effect of co-administration with bupivacaine hydrochloride on spinal blockade” value is “additive effect”. Further, under setting [1], the “AUC of time-% PE curve, spinal blockade of motor function” value was 953 ± 114; the “AUC of time-% PE curve, spinal blockade of nociceptive reaction” value stood at 4131 ± 385; the “AUC of time-% PE curve, spinal blockade of proprioception” value is 1985 ± 219. Moreover, the “Motor function ED50 (95% CI)” value (spinal blockade of motor function, intrathecal injection, rats) was 0.56 (0.54–0.59) mg. The “Nociceptive reaction ED50 (95% CI)” value (spinal blockade of nociceptive reaction, intrathecal injection, rats) is 0.46 (0.43–0.49) mg. In addition, under “spinal blockade of proprioception, intrathecal injection, rats”, the “Proprioception ED50 (95% CI)” value is 0.48 (0.45–0.52) mg. Moreover, under setting [2], the “Mean value ED25” value came out at 0.39 mg, the “Mean value ED50” value was 0.50 mg and the “Mean value ED75” value is listed as 0.65 mg.

For the origin of these results see patent US20080070939A1, “LOCAL […] COMPOSITIONS CONTAINING DEXTROROTATORY MORPHINAN DERIVATIVES OR PHARMACEUTICALLY ACCEPTABLE SALTS THEREOF” (CHI MEI FOUNDATION HOSPITAL, priority 2006, published 2008).
